This is an account of results in article PMC11504387, “Synthesis and Biological Activity Assessment of 2-Styrylbenzothiazoles as Potential Multifunctional Therapeutic Agents” (Antioxidants, 2024).

The subject of one data set is PMNL. Description: ROS production in PMA-stimulated PMNL. The settings on record: 10 µM, mean ± SD. In kind it is cell-based, human. Here is the method:
After 10 min at 37 °C, PMA (0.1 μM) was added. The fluorescence emission at 530 nm was measured after excitation at 485 nm in a thermally controlled (37 °C) NOVOstar microplate reader (BMG Lab technologies GmbH, Offenburg, Germany). […] ROS generation was induced by phorbol-12-myristate-13-acetate (PMA), a widely recognized agent for stimulating ROS production in neutrophils and enhancing endogenous superoxide formation. Diphenyleneiodonium (DPI, 10 µM), a NADPH oxidase inhibitor, served as a positive control. Through this assay, we could assess the potential interaction of our compounds with intracellular ROS production and their capacity to act as radical scavengers within a relevant cellular context. Furthermore, the outcomes provided additional insights into their inhibitory mechanism and helped to determine whether they act directly or non-specifically, as there is evidence that an impact on the ROS levels in PMNL could be translated to modulation of 5-LO activity in the cellular environment. […] With those data in hand, together with 5-LO inhibition assay outcomes, a direct inhibition of the enzyme stands as the best fitting option regarding the mechanism of action of compounds BZTst4 and BZTst6. […] This phenomenon was not further explored because such investigation was beyond the scope of this work.

The nature of data set [1]: UV spectrophotometric analysis of compounds in solution. It is filed as physicochemical. The settings on record: at ʎmax, Lambert–Beer equation. Here is the method: The synthesized compounds were solubilised in DMSO and diluted in MeOH, and the absorbance of the 10 µg/mL solution was measured between 290–400 nm with a UV-Vis spectrophotometer (SHIMADZU UV-2600 240 V, 1 cm quartz cell at 1 nm intervals). The absorbance at wavelength λ is related to the transmittance T(λ) via the Equation (1): A(λ) = −Log[T(λ)](1) where T(λ) is the fraction of incident irradiance transmitted by the sample. […]
The molar extinction coefficient was calculated with the absorbance recorded at the ʎmax applying the Lambert–Beer equation.

The nature of data set [2]: In vitro filtering parameters of O/W sunscreen formulation on PMMA plates. The settings on record: 3% in O/W sunscreen formulation. Here is the method: Synthesized compounds were incorporated at 3% concentration in a suitable oil-in-water (O/W) emulsion for cosmetic use as sunscreen.
INCI: Aqua, Glycerin, Xanthan Gum, Phenoxyethanol (and) Ethylhexylglycerin, Tribehenin PEG-20 Esters, Cetearyl Alcohol, Dicaprylyl Carbonate, PPG 26 Buteth-26 (and) PEG 40 Hydrogenated Castor Oil, C12-15 Alkyl Benzoate, Sodium hydroxide (sol. 10%).
A protocol previously reported by us was adopted. Briefly, 32.5 mg of each compound formulation was spread on the rough surface of 5 × 5 cm^2 PMMA plates in the form of small drops of approximately equal mass, in triplicate. The plates were placed in the dark for 15–30 min to allow the formation of a sun-stabilised standard layer and then inserted into the instrument and measured at five different points on each plate (UV transmittance range 290–400 nm). The blank was a plate coated with 32.5 mg glycerine, chosen for its non-fluorescence and UV transparency. In addition, in vitro SPF, UVAPF and ʎc values were calculated according to Equations (2)–(4) above. To evaluate the booster effect of selected synthesized compounds, they were incorporated at 3% concentration in an oil-in-water (O/W) sunscreen formulation with fixed SPF and UVAPf values (30 and 10, respectively).
Aiming to create compounds with diverse biological activities, the synthesized 2-styrylbenzothiazoles were examined for potential applications in sunscreens. Each candidate was incorporated into a standard cosmetic formulation at a concentration of 3% and subjected to photoprotective efficacy testing using the Diffey–Robson method. The formulation comprised an oil-in-water (O/W) emulsion suitable for sunscreen use, with each benzothiazole derivative being heat-solubilized in the oil phase and then dispersed into the emulsion using a turbo emulsifier. The mixture was then cooled, and the emulsion was spread onto polymethylmethacrylate (PMMA) plates before recording the transmittance spectra. The SPF value, UVA protection factor value (UVAPF), the […], and the critical wavelength (λc) were determined from the transmittance spectra using SPF calculator software and are presented in Table 3. These parameters are essential for evaluating the efficacy of potential sunscreen products.

Data set [3] in a line: Photostability of O/W emulsions under solar simulator. In kind it is physicochemical. The settings on record: O/W emulsion on PMMA. Here is the method:
Oil-in-water (O/W) emulsions containing individual filters were spread on PMMA sheet and irradiated with a solar simulator by applying different doses of UVA equivalent to an erythema effective radiant exposure of 100 J/m^2. Photostability was assessed by analysing the spectral transmittance, before and after irradiation, of the sunscreen thin film, measured before and after exposure from 290 to 400 nm. The residual percentages of SPF in vitro (%SPFeff.) and UVAPF (%UVAPFeff.) were calculated according to Equations (6) and (7), respectively. When the %SPFeff. and %UVAPFeff. are greater than or equal to 80, according to current regulations, a filter can be considered photostable [37].
To evaluate the effectiveness and safety profile of a sunscreen formulation, it is necessary to provide data on its photostability. Photodegradation data can be obtained by recording the pre- and post-irradiation transmittance spectra of PMMA plates with finger-coat formulations exposed to a dose of UVA capable of causing erythema. This method, established by Garoli et al., is used to determine photostability. The sun protection layer’s transmission in the range of 290–400 nm is recorded before and after exposure to sunlight, following the protocol.
The residual percentages of SPF in vitro (%SPFeff.) and UVAPf (%UVAPfeff.) were calculated using Equations (6) and (7) and are listed in Table 4. A filter can be classified as photostable if the %SPFeff. is greater than or equal to 80, according to regulatory standards. %SPFeff. = in vitro SPFafter/in vitro SPFbefore × 100(6) %UVAPfeff. = UVAPfafter/UVAPfbefore × 100(7) where SPFafter and SPFbefore are the SPF values calculated from the software after and before solar irradiation, and UVAPfafter and UVAPfbefore are the UVAPf values calculated from the software after and before solar irradiation.

The target in data set [4] is T1, 5-LO in A23187-stimulated human PMNL (Homo sapiens, UniProt P09917).
T1 construct: Freshly isolated PMNL (1 × 10^6 cells/mL) in PBS buffer pH 7.4; endogenous in cells; host or cells: primary human PMNL (neutrophils) isolated from blood
T1 sequence (P09917 1-674): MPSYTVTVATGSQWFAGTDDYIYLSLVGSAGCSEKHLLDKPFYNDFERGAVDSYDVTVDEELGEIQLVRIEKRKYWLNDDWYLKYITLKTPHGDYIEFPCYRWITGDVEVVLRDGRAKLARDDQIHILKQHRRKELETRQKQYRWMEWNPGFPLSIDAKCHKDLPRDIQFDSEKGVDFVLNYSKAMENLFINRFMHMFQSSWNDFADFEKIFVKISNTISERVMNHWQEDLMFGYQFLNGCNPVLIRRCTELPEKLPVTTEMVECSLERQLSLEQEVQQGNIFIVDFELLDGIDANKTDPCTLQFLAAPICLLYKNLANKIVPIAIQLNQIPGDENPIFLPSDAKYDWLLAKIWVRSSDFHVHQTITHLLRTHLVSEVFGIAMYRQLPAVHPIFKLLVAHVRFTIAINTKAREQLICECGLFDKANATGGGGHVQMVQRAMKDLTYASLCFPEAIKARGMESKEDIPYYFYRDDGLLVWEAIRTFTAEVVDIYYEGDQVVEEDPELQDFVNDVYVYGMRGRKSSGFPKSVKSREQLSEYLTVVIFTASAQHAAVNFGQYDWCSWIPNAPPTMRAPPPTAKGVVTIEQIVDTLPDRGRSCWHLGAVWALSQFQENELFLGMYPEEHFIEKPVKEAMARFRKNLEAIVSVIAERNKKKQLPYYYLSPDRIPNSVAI
Description: 5-Lipoxygenase inhibition in a cell-based assay (PMNL). As to conditions: PMNL; 3 µM; % relative to vehicle (DMSO); read-out: 5-LO Residual Activity (PMNL). Here is the method: Following blood density centrifugation and cell population separation, PMNL was recovered from the pellet after hypotonic lysis of erythrocytes. Freshly isolated PMNL (1 × 10^6 cells/mL) in PBS buffer pH 7.4 with glucose (1 mg/mL) and CaCl2 (1 mM) was pre-incubated with the test compounds for 10 min at 37 °C. Then, 5-lipoxygenase (5-LO) product formation was started by addition of 2.5 μM Ca^2+-ionophore A23187 plus 20 μM arachidonic acid. The reaction was stopped after 10 min at 37 °C with 1 mL of ice-cold methanol containing 200 ng PGB1 as internal standard. Major 5-LO products (LTB4, trans-LTB4, epi-trans-LTB4, and 5-HETE) were extracted by SPE using Sep-Pak C18 35 cc Vac Cartridges (Waters, Milford, MA, USA) and analysed by UPLC-MS/MS as described by Pein et al..

The next data set addresses T2, Human recombinant 5-LO (Homo sapiens, UniProt P09917).
T2 construct: made in house
T2 sequence (P09917 1-674): T1 sequence (P09917 1-674)
Description: 5-Lipoxygenase inhibition in a cell-free assay. As to conditions: 3 µM; % relative to vehicle (DMSO); read-out: 5-LO Residual Activity (Cell-Free). In kind it is biochemical. Here is the method: Human recombinant 5-LO was expressed and isolated as described before, and immediately used for activity assays after isolation. The 5-LO (0.5 µg, in 1 mL PBS pH 7.4 containing 1 mM EDTA) was pre-incubated with the test compounds for 10 min at 4 °C and pre-warmed for 30 s at 37 °C. 5-LO product formation was initiated by sequential addition of 1 mM CaCl2 and 20 μM arachidonic acid. After 10 min at 37 °C, the reaction was terminated by addition of 1 mL ice-cold methanol containing 200 ng PGB1 as internal standard. Formed 5-LO products (trans-LTB4, epi-trans-LTB4, and 5-HETE) were extracted using Sep-Pak C18 35 cc Vac Cartridges and analysed by UPLC-MS/MS as previously described.

Data set [5] deals with human melanoma Colo38 cells. Description: Cell growth inhibition assay, Colo38. It is filed as cell-based. As to conditions: 24 h incubation; mean ± SD. Here is the method: Cell growth inhibition analyses were performed on human melanoma Colo38 cells and skin HaCat keratinocytes. Human melanoma Colo38 cells were kindly given by Dr. Patrizio Giacomini (Laboratory of Immunology, Regina Elena Institute, Rome, Italy). HaCat cells were obtained from Istituto Zooprofilattico Sperimentale della Lombardia e dell’Emilia-Romagna, Brescia, Italy. Cells were seeded at 40,000 cells/mL and 25,000 cells/mL, respectively. Colo38 cells were maintained in RPMI 1640, supplemented with 10% foetal bovine serum (FBS), penicillin (100 Units/mL), and streptomycin (100 µg/mL). HaCat cells were maintained in DMEM, supplemented with 10% fatal bovine serum (FBS), penicillin (100 Units/mL), streptomycin (100 µg/mL) and glutamine (2 mM); the incubation was performed at 37 °C in a 5% CO2 atmosphere. Compounds were dissolved in DMSO to obtain 50 mM stock solutions and diluted before cell treatment in MeOH. The tested compounds were added at serial dilutions to the cell cultures (from 0.1 to 100 µM) and incubated for 24 h further. Cells were then harvested, suspended in physiological solution, and counted with a Z2 Coulter Counter (Coulter Electronics, Hialeah, FL, USA). The number of cells/mL and the IC50 values were determined when untreated cells were in the log phase of cell growth. Samples of vehicles and untreated cells were included in each plate. Cisplatin was used as positive control for the HaCat cells, while N1-(4-arylidene)-1H-(2-OH-4-N(Et)2-phenyl)-[d]imidazole-2-carbohydrazide was used as positive control for the Colo38 cell line.

`c1ccc2c(c1)[I+]c1ccccc1-2` [DPI, Diphenyleneiodonium, reference compound]: the “ROS Production (% of Control)” value in the data set with PMNL is recorded as 16.44 ± 2.14 % of control.
For the molecule `O=S(=O)(O)c1ccc2[nH]c(-c3ccccc3)nc2c1` [PBSA, 2-Phenyl-1H-Benzimidazole-5-Sulphonic Acid, reference compound], the “Ɛ (molar extinction coefficient)” value in data set [1] is on record as 23,881.86 dm^3 mol^−1 cm^−1. For the same molecule, in data set [2], the SPF was 1.91, the UVA/UVB turned out to be 0.67, the UVAPF was determined as 1.13 and the “ʎc (critical wavelength)” value is recorded as 357 nm. For the same molecule, the “%UVAPfeff.” value in data set [3] (residual UVAPF after solar irradiation) is recorded as 100.00%. For the same molecule, the “%SPFeff.” value in data set [3] (residual in vitro SPF after solar irradiation) is given as 103.66%.
For the molecule `CC(c1cc2ccccc2s1)N(O)C(N)=O` (centres unmarked) [Zileuton, zileuton, reference compound], the remaining activity at 3 µM in data set [4] came out at 31.3 ± 12.7%; on Human recombinant 5-LO, 28.6 ± 7.38%.
For “N^1-(4-arylidene)-1H-(2-OH-4-N(Et)2-phenyl)-[d]imidazole-2-carbohydrazide [Cmp 13, reference compound]”, the IC50 (as a rule, the concentration that gives 50% inhibition) in data set [5] is 700 ± 60 nM.
